Reference: article PMC11322065, “N-demethylsinomenine metabolite and its prototype sinomenine activate mast cells via MRGPRX2 and aggravate anaphylaxis” (Frontiers in Pharmacology, 2024)
Counter-ions that a name gives are not always drawn.

Biological target: T1, MRGPRX2 (Homo sapiens, UniProt Q96LB1)
T1 sequence (Q96LB1 1-330): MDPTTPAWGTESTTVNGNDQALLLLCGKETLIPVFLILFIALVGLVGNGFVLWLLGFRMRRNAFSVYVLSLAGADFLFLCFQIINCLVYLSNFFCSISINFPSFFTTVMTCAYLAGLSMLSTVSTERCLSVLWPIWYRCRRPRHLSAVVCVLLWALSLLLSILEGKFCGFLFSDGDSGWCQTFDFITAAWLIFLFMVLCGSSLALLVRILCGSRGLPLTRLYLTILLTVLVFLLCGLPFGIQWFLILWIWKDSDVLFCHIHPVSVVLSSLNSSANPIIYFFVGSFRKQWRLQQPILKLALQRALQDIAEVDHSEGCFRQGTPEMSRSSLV
Test: SPR, MRGPRX2 protein immobilised on CM5 chip
Assay type: binding

Structure (SMILES)	Kd [µM]
COC1=C[C@@H]2[C@@H]3Cc4ccc(OC)c(O)c4[C@]2(CCN3)CC1=O [M-3, N-demethylsinomenine]	7.58
COC1=C[C@@H]2[C@@H]3Cc4ccc(OC)c(O)c4[C@]2(CCN3C)CC1=O [SH, sinomenine hydrochloride]	0.681
